Data as given in the supplement of paper PMC10307832.

Key:
Assay in all cases: relative viability (nuclei count vs DMSO), 5 days (fraction); higher = more cells survive
HARA = test system: HARA
Method in brief: (§1)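 Each reported value is a median over duplicate plates. It expresses relative viability: treated-well nuclei count divided by vehicle-well nuclei count. Lung cancer cell lines in 1536-well plates were dosed by pin tool a day after seeding, alone with one drug or with a fixed anchor-drug dose plus five library-drug doses (not always all listed) in √10 steps, and nuclei were counted after 5 days.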

NCI-H2087 = test system: NCI-H2087
Method in brief: as §1

NCI-H522 = test system: NCI-H522
Method in brief: as §1

NCI-H2126 = test system: NCI-H2126
Method in brief: as §1

NCI-H647 = test system: NCI-H647
Method in brief: as §1

EMC-BAC-2 = test system: EMC-BAC-2
Method in brief: as §1

LOU-NH91 = test system: LOU-NH91
Method in brief: as §1

NCI-H2009 = test system: NCI-H2009
Method in brief: as §1

NCI-H2347 = test system: NCI-H2347
Method in brief: as §1

LCLC-103H = test system: LCLC-103H
Method in brief: as §1

NCI-H727 = test system: NCI-H727
Method in brief: as §1

201T = test system: 201T
Method in brief: as §1

NCI-H596 = test system: NCI-H596
Method in brief: as §1

NCI-H1395 = test system: NCI-H1395
Method in brief: as §1

NCI-H1993 = test system: NCI-H1993
Method in brief: as §1

NCI-H3122 = test system: NCI-H3122
Method in brief: as §1

NCI-H1666 = test system: NCI-H1666
Method in brief: as §1

HCC-44 = test system: HCC-44
Method in brief: as §1

BEN = test system: BEN
Method in brief: as §1

NCI-H441 = test system: NCI-H441
Method in brief: as §1

NCI-H838 = test system: NCI-H838
Method in brief: as §1

NCI-H23 = test system: NCI-H23
Method in brief: as §1

NCI-H650 = test system: NCI-H650
Method in brief: as §1

NCI-H2023 = test system: NCI-H2023
Method in brief: as §1

Q: `COc1cc(N2CCC(C(N)=O)CC2)ccc1Nc1nc(N)c(Cl)c(Nc2ccccc2S(=O)(=O)C(C)C)n1` [HG-5-88-01] + O=C(CCCCCCC(=O)Nc1ccccc1)NO [Vorinostat] (partner 1 µM) was tested. Which relative viability (HARA; first compound 0.04 µM) did it give?
A: 0.532

Q: What about the relative viability (HARA; first compound 0.1265 µM) of the same compound?
A: 0.526

Q: What about the relative viability (HARA; first compound 0.4 µM) of the same compound?
A: 0.585

Q: And the relative viability (HARA; first compound 1.265 µM)?
A: 0.577

Q: What about the relative viability (HARA; first compound 4 µM) of the same compound?
A: 0.507

Q: What about the relative viability (NCI-H2087; first compound 0.04 µM) of the same compound?
A: 0.74

Q: And the relative viability (NCI-H2087; first compound 0.1265 µM)?
A: 0.692

Q: What about the relative viability (NCI-H2087; first compound 0.4 µM) of the same compound?
A: 0.592

Q: And the relative viability (NCI-H2087; first compound 1.265 µM)?
A: 0.928

Q: And the relative viability (NCI-H2087; first compound 4 µM)?
A: 0.76

Q: And the relative viability (NCI-H522; first compound 0.04 µM)?
A: 0.923

Q: And the relative viability (NCI-H522; first compound 0.1265 µM)?
A: 0.855

Q: And the relative viability (NCI-H522; first compound 0.4 µM)?
A: 0.784

Q: And the relative viability (NCI-H522; first compound 1.265 µM)?
A: 0.667

Q: And the relative viability (NCI-H522; first compound 4 µM)?
A: 0.671

Q: What about the relative viability (NCI-H2126; first compound 0.04 µM) of the same compound?
A: 0.653

Q: What about the relative viability (NCI-H2126; first compound 0.1265 µM) of the same compound?
A: 0.813

Q: What about the relative viability (NCI-H2126; first compound 0.4 µM) of the same compound?
A: 0.713

Q: What about the relative viability (NCI-H2126; first compound 1.265 µM) of the same compound?
A: 0.594

Q: And the relative viability (NCI-H2126; first compound 4 µM)?
A: 0.456

Q: What about the relative viability (NCI-H647; first compound 0.04 µM) of the same compound?
A: 0.522

Q: And the relative viability (NCI-H647; first compound 0.1265 µM)?
A: 0.813

Q: What about the relative viability (NCI-H647; first compound 1.265 µM) of the same compound?
A: 0.774

Q: What about the relative viability (NCI-H647; first compound 4 µM) of the same compound?
A: 0.86

Q: What about the relative viability (EMC-BAC-2; first compound 0.04 µM) of the same compound?
A: 0.503

Q: And the relative viability (EMC-BAC-2; first compound 0.1265 µM)?
A: 0.442

Q: What about the relative viability (EMC-BAC-2; first compound 0.4 µM) of the same compound?
A: 0.354

Q: And the relative viability (EMC-BAC-2; first compound 1.265 µM)?
A: 0.518

Q: And the relative viability (EMC-BAC-2; first compound 4 µM)?
A: 0.448

Q: What about the relative viability (LOU-NH91; first compound 0.04 µM) of the same compound?
A: 0.869

Q: And the relative viability (LOU-NH91; first compound 0.1265 µM)?
A: 0.823

Q: What about the relative viability (LOU-NH91; first compound 0.4 µM) of the same compound?
A: 0.723

Q: What about the relative viability (LOU-NH91; first compound 1.265 µM) of the same compound?
A: 0.508

Q: And the relative viability (LOU-NH91; first compound 4 µM)?
A: 0.469

Q: And the relative viability (NCI-H2009; first compound 0.04 µM)?
A: 0.704

Q: What about the relative viability (NCI-H2009; first compound 0.1265 µM) of the same compound?
A: 0.796

Q: What about the relative viability (NCI-H2009; first compound 0.4 µM) of the same compound?
A: 0.694

Q: What about the relative viability (NCI-H2009; first compound 1.265 µM) of the same compound?
A: 0.616

Q: And the relative viability (NCI-H2009; first compound 4 µM)?
A: 0.647

Q: What about the relative viability (NCI-H2347; first compound 0.04 µM) of the same compound?
A: 0.52

Q: And the relative viability (NCI-H2347; first compound 0.1265 µM)?
A: 0.544

Q: And the relative viability (NCI-H2347; first compound 0.4 µM)?
A: 0.731

Q: What about the relative viability (NCI-H2347; first compound 1.265 µM) of the same compound?
A: 0.553

Q: What about the relative viability (NCI-H2347; first compound 4 µM) of the same compound?
A: 0.577

Q: And the relative viability (LCLC-103H; first compound 0.04 µM)?
A: 0.826

Q: And the relative viability (LCLC-103H; first compound 0.1265 µM)?
A: 0.767

Q: And the relative viability (LCLC-103H; first compound 0.4 µM)?
A: 0.65

Q: And the relative viability (LCLC-103H; first compound 1.265 µM)?
A: 0.757

Q: What about the relative viability (LCLC-103H; first compound 4 µM) of the same compound?
A: 0.605

Q: What about the relative viability (NCI-H727; first compound 0.04 µM) of the same compound?
A: 1.29

Q: What about the relative viability (NCI-H727; first compound 0.1265 µM) of the same compound?
A: 1.18

Q: And the relative viability (NCI-H727; first compound 0.4 µM)?
A: 1.19

Q: And the relative viability (NCI-H727; first compound 4 µM)?
A: 1.1

Q: What about the relative viability (201T; first compound 0.04 µM) of the same compound?
A: 0.984

Q: What about the relative viability (201T; first compound 0.1265 µM) of the same compound?
A: 0.94

Q: And the relative viability (201T; first compound 1.265 µM)?
A: 0.883

Q: What about the relative viability (201T; first compound 4 µM) of the same compound?
A: 1.11

Q: And the relative viability (NCI-H596; first compound 0.04 µM)?
A: 0.604

Q: And the relative viability (NCI-H596; first compound 0.1265 µM)?
A: 0.597

Q: And the relative viability (NCI-H596; first compound 0.4 µM)?
A: 0.641

Q: What about the relative viability (NCI-H596; first compound 1.265 µM) of the same compound?
A: 0.571

Q: And the relative viability (NCI-H596; first compound 4 µM)?
A: 0.532

Q: And the relative viability (NCI-H1395; first compound 0.04 µM)?
A: 0.69

Q: What about the relative viability (NCI-H1395; first compound 0.1265 µM) of the same compound?
A: 0.681

Q: What about the relative viability (NCI-H1395; first compound 0.4 µM) of the same compound?
A: 0.733

Q: What about the relative viability (NCI-H1395; first compound 1.265 µM) of the same compound?
A: 0.832

Q: What about the relative viability (NCI-H1395; first compound 4 µM) of the same compound?
A: 0.597

Q: What about the relative viability (NCI-H1993; first compound 0.04 µM) of the same compound?
A: 0.669

Q: And the relative viability (NCI-H1993; first compound 0.1265 µM)?
A: 0.976

Q: And the relative viability (NCI-H1993; first compound 0.4 µM)?
A: 0.721

Q: And the relative viability (NCI-H1993; first compound 4 µM)?
A: 0.644

Q: And the relative viability (NCI-H3122; first compound 0.04 µM)?
A: 0.731

Q: What about the relative viability (NCI-H3122; first compound 0.1265 µM) of the same compound?
A: 0.438

Q: What about the relative viability (NCI-H3122; first compound 0.4 µM) of the same compound?
A: 0.195

Q: What about the relative viability (NCI-H3122; first compound 1.265 µM) of the same compound?
A: 0.218

Q: And the relative viability (NCI-H3122; first compound 4 µM)?
A: 0.158

Q: What about the relative viability (NCI-H1666; first compound 0.04 µM) of the same compound?
A: 0.984

Q: What about the relative viability (NCI-H1666; first compound 0.1265 µM) of the same compound?
A: 1

Q: And the relative viability (NCI-H1666; first compound 0.4 µM)?
A: 0.975

Q: What about the relative viability (NCI-H1666; first compound 1.265 µM) of the same compound?
A: 0.92

Q: And the relative viability (NCI-H1666; first compound 4 µM)?
A: 0.828

Q: What about the relative viability (HCC-44; first compound 0.04 µM) of the same compound?
A: 1.07

Q: What about the relative viability (HCC-44; first compound 0.1265 µM) of the same compound?
A: 1.14

Q: What about the relative viability (HCC-44; first compound 0.4 µM) of the same compound?
A: 1.05

Q: What about the relative viability (HCC-44; first compound 1.265 µM) of the same compound?
A: 1.08

Q: And the relative viability (HCC-44; first compound 4 µM)?
A: 1.14

Q: What about the relative viability (BEN; first compound 0.04 µM) of the same compound?
A: 0.555

Q: What about the relative viability (BEN; first compound 0.1265 µM) of the same compound?
A: 0.624

Q: What about the relative viability (BEN; first compound 0.4 µM) of the same compound?
A: 0.591

Q: What about the relative viability (BEN; first compound 1.265 µM) of the same compound?
A: 0.552

Q: What about the relative viability (BEN; first compound 4 µM) of the same compound?
A: 0.532

Q: What about the relative viability (NCI-H441; first compound 0.04 µM) of the same compound?
A: 0.779

Q: And the relative viability (NCI-H441; first compound 0.1265 µM)?
A: 0.736

Q: What about the relative viability (NCI-H441; first compound 0.4 µM) of the same compound?
A: 0.678

Q: And the relative viability (NCI-H441; first compound 1.265 µM)?
A: 0.865

Q: And the relative viability (NCI-H441; first compound 4 µM)?
A: 0.725

Q: What about the relative viability (NCI-H838; first compound 0.04 µM) of the same compound?
A: 0.745

Q: What about the relative viability (NCI-H838; first compound 0.1265 µM) of the same compound?
A: 0.707

Q: And the relative viability (NCI-H838; first compound 0.4 µM)?
A: 0.651

Q: What about the relative viability (NCI-H838; first compound 1.265 µM) of the same compound?
A: 0.596

Q: What about the relative viability (NCI-H838; first compound 4 µM) of the same compound?
A: 0.53

Q: What about the relative viability (NCI-H23; first compound 0.04 µM) of the same compound?
A: 0.793

Q: And the relative viability (NCI-H23; first compound 0.1265 µM)?
A: 0.752

Q: What about the relative viability (NCI-H23; first compound 0.4 µM) of the same compound?
A: 0.609

Q: What about the relative viability (NCI-H23; first compound 1.265 µM) of the same compound?
A: 0.538

Q: What about the relative viability (NCI-H23; first compound 4 µM) of the same compound?
A: 0.307

Q: What about the relative viability (NCI-H650; first compound 0.04 µM) of the same compound?
A: 0.409

Q: What about the relative viability (NCI-H650; first compound 0.1265 µM) of the same compound?
A: 0.402

Q: And the relative viability (NCI-H650; first compound 0.4 µM)?
A: 0.386

Q: What about the relative viability (NCI-H650; first compound 1.265 µM) of the same compound?
A: 0.424

Q: And the relative viability (NCI-H650; first compound 4 µM)?
A: 0.29

Q: And the relative viability (NCI-H2023; first compound 0.04 µM)?
A: 0.764

Q: And the relative viability (NCI-H2023; first compound 0.1265 µM)?
A: 0.777

Q: And the relative viability (NCI-H2023; first compound 0.4 µM)?
A: 0.361

Q: What about the relative viability (NCI-H2023; first compound 1.265 µM) of the same compound?
A: 0.425

Q: And the relative viability (NCI-H2023; first compound 4 µM)?
A: 0.436
